In brackets after ≈: the same amount, converted by molar mass.

One data set can be described thus: Preliminary evaluation of uranine fluorescence stability (pH, chlorine). Type of data set: physicochemical. Conditions: about 1-4 ppm of free chlorine. The procedure: Fluorescent molecular markers are subjected to screening criteria, including low toxicity, low background fluorescence in water, economic feasibility for long term use, and commercial availability. Screening criteria are also based on experiments, including stability with light exposure, strong fluorescent intensity, stability under various pH conditions, and stability under chlorine exposure.
Uranine stock solutions were prepared from reagent-grade uranine powder (Fisher Scientific, Pittsburgh, Pa.) dissolved in ultra-pure deionized water from a Milli-Q water purification system (Millipore Corp., San Jose, Calif.). RO desalting runs were conducted using low salinity potable tap water (average reported total dissolved solids (TDS) of about 265 mg/l, TOC of about 1.7 mg/l, and total hardness of about 113 mg/l as CaCO3).
For the compound `O=C([O-])c1ccccc1-c1c2ccc(=O)cc-2oc2cc([O-])ccc12.[Na+].[Na+]` [Uranine], the “chlorine tolerance of fluorescence” value is “high level of chlorine tolerance”.

The data set is the same for the next values; noted with them: typical RO process pH operating range, pH of about 6-8.
Take `O=C([O-])c1ccccc1-c1c2ccc(=O)cc-2oc2cc([O-])ccc12.[Na+].[Na+]` [Uranine]: the “stability of fluorescence intensity with pH” value is given as “stable fluorescence intensity”.

Assay in the next data set: not given
The conditions noted are these: cited from earlier work.
For the compound `O=C(O)c1c(Cl)c(Cl)c(Cl)c(Cl)c1-c1c2cc(I)c(=O)c(I)c-2oc2c(I)c(O)c(I)cc12` [Bengal rose], the “Solubility in Water” value is recorded as 100 mg/mL (≈ 103 mM).
As to `O=C(O)c1ccccc1-c1c2cc([N+](=O)[O-])c(=O)c(Br)c-2oc2c(Br)c(O)c([N+](=O)[O-])cc12` [Eosin B], the “Solubility in Water” value is reported as 40 mg/mL (≈ 69 mM).
For the compound `Cc1ccc(N2C(=O)c3cccc4c(N)c(S(=O)(=O)[O-])cc(c34)C2=O)cc1.[Na+]` [Lissamine FF], the “Solubility in Water” value is 40 mg/mL.
Regarding `O=S(=O)([O-])c1cc(O)c2ccc3c(S(=O)(=O)[O-])cc(S(=O)(=O)[O-])c4ccc1c2c34.[Na+].[Na+].[Na+]` [Pyranine], the “Solubility in Water” value is reported as 178 mg/mL.
Turning to `CCN(CC)c1ccc2c(-c3ccc(S(=O)(=O)O)cc3S(=O)(=O)[O-])c3ccc(=[N+](CC)CC)cc-3oc2c1` [Sulforhodamine B], the “Solubility in Water” value is 10 mg/mL (≈ 17.9 mM).
With `O=S(=O)([O-])c1ccccc1C=Cc1ccc(-c2ccc(C=Cc3ccccc3S(=O)(=O)[O-])cc2)cc1.[Na+].[Na+]` [Tinopal CBS-X], the “Solubility in Water” value is 25 mg/mL.
For Amidorhodamine G, the “Solubility in Water” value was “very soluble”.
As for Erythrosine, the “Solubility in Water” value is 20 mg/mL.
Turning to Lanaperl fast yellow, the “Solubility in Water” value is “very soluble”.
As to Sodium naphtionate, the “Solubility in Water” value is given as 240 mg/mL.

These data come from patent publication US20150001139A1, “REAL-TIME INTEGRITY MONITORING OF SEPARATION MEMBRANES” (THE REGENTS OF THE UNIVERSITY OF CALIFORNIA, priority 2013, published 2015).
